Results as given in paper PMC4850295, “Using a Genetically Encoded Sensor to Identify Inhibitors of Toxoplasma gondii Ca^2+ Signaling” (The Journal of Biological Chemistry, 2016).
“And” between values parts separate entries of the source, which are not always exact repeats. Equal entries are not always repeated.

These compounds were tested on T1, GCaMP5-expressing T. gondii. Conditions: 100 uM zaprinast stimulation, 10 min pretreatment, mean of two replicates, 0.23 h, 10 µM.
T1 construct: whole extracellular parasites expressing GCaMP5 Ca2+ sensor
Parameters: species or system GCaMP5-expressing Toxoplasma gondii, extracellular; GCaMP5 fluorescence (cytosolic Ca2+) after 100 uM zaprinast in compound-pretreated extracellular parasites, background-subtracted, relative to zaprinast alone
Description: GCaMP5-expressing parasites were suspended in Ringer's solution at 4 × 10^7 parasites/ml, and 50 μl of parasites were applied to each well of a 96-well plate (Costar, catalog no. 3631). […] Parasites were then treated with 100 μM zaprinast or 0.1% DMSO as a vehicle control and incubated at 37 °C with 5% CO2 for an additional 4 min before measuring fluorescence with excitation and emission wavelengths of 485 and 525 nm, respectively, on a SpectraMax M3 (Molecular Devices). Basal fluorescence, measured from untreated parasites, was subtracted from all values, and results were expressed as -fold change from parasites treated only with zaprinast. Z′ factors were determined from (i) parasites treated with zaprinast versus untreated parasites and (ii) parasites treated with a final concentration of 1 μM Cpd2 or a vehicle control followed by zaprinast, using the formula, Z′ = 1 − 3(σp + σn)/(|μp − μn|), where σp and σn indicate S.D. values of positive and negative controls, and μp and μn indicate the means of positive and negative controls, respectively. […] We predicted that the zaprinast response measured in GCaMP5-expressing parasites could form the basis for a phenotypic screen. Such a screen would benefit from the known importance of Ca^2+ signaling in parasite biology along with the reported success rate of cell-based phenotypic assays. We designed a screen wherein extracellular GCaMP5-expressing parasites were pretreated with compounds for 10 min before stimulation with zaprinast, and parasite fluorescence was measured 4 min later. We expected that compounds that interfered with the zaprinast response would reduce fluorescence. We calculated a Z′-factor for this screen to determine its dynamic range and suitability to high throughput screening. To do so, we compared zaprinast-treated parasites to untreated parasites or those pretreated with the PKG inhibitor Compound 2 (Cpd2) ([55]). […] We obtained the compound libraries published kinase inhibitor sets PKIS1 ([57]) and PKIS2 (unpublished), from GlaxoSmithKline and applied our phenotypic screen to the 823 ATP mimetics represented in these collections (Fig. 2B and supplemental Table S1). The compounds were screened at a single 10 μM dose with two biological replicates.

Row | SMILES | fold change in fluorescence relative to zaprinast alone
1 | Fc1ccc(-c2nc3n(c2-c2ccncc2)CCS3)cc1 [GI98581X] | 0.7657 and 1.237
2 | CCn1c(-c2nonc2N)nc2c(-c3ccccc3)ncc(OCCCN)c21 [GSK260205A] | 0.1513

Same assay, conditions: 100 uM zaprinast stimulation; 10 min pretreatment; mean of two replicates; 0.23 h

Row | SMILES | fold change in fluorescence relative to zaprinast alone
3 | Nc1ncnc2c1ncn2-c1ccc(Cl)cc1 [AH2635] | 1.022
4 | c1ccc(-c2cnc3nccnn23)cc1 [AH20685XX] | 1.296
5 | COc1cc2ncnc(Nc3cccc(Br)c3)c2cc1OC [GI230329A] | 1.268
6 | COc1ccc2ncnc(Nc3ccc(OCc4ccccc4)cc3)c2c1 [GI261520A] | 0.7394
7 | COc1cc2ncnc(Nc3ccc(OCc4ccccc4Br)c(Cl)c3)c2cc1OC [GI261590A] | 1.09
8 | COc1cc2nccc(Nc3ccc(Oc4ccccc4)cc3)c2cc1OC [GI261656A] | 0.5416
9 | O=C1Nc2ccccc2C1=C1CCc2cc(O)ccc21 [GR105659X] | 1.22
10 | c1ccc(Cc2nc3ccc(Nc4ncnc5ccccc45)cc3[nH]2)cc1 [GR269666A] | 1.257
11 | Clc1cc(Cl)cc(Nc2ccnc(Nc3cc(Cl)cc(Cl)c3)n2)c1 [GSK175726A] | 0.5192
12 | CC1=C(C(=O)Nc2ccc3[nH]ncc3c2)C(c2ccc(F)cc2)NC(=O)N1 (stereo not shown) [GSK180736A] | 0.8811
13 | CN(C)C(=O)O[C@H]1CN[C@H](C#Cc2cc3ncnc(Nc4ccc(OCc5cccc(F)c5)c(Cl)c4)c3s2)C1 [GSK182497A] | 1.183
14 | Cc1ccc(-c2nc(Nc3ccncc3)c3ccccc3n2)s1 [GSK189015A] | 0.1154
15 | CCNC(=O)O[C@H]1CN[C@H](C#Cc2cc3ncnc(Nc4ccc(OCc5cccc(F)c5)c(Cl)c4)c3s2)C1 [GSK192082A] | 1.213
16 | O=C(Nc1cccc(-c2nn3ncccc3c2-c2ccnc(Nc3ccccc3)n2)c1)c1c(F)cccc1F [GSK198271A] | 1.278
17 | O=C(O[C@H]1CN[C@H](C#Cc2cc3ncnc(Nc4ccc5c(cnn5Cc5ccccc5)c4)c3s2)C1)N1CCOCC1 [GSK200398A] | 1.169
18 | COc1cc2ncn(-c3cc(OCC4CCCCC4)c(C(N)=O)s3)c2cc1OC [GSK204559A] | 1.336
19 | COc1cc2ncn(-c3cc(OCCc4ccccc4)c(C(N)=O)s3)c2cc1OC [GSK204925A] | 0.9795
20 | COc1cc2c(Nc3cccc(NC(=O)c4ccccc4)c3)ncnc2cc1OCCCN1CCOCC1 [GSK223810A] | 1.471
21 | COc1cc2ncn(-c3cc(O[C@@H](C)c4ccccc4Cl)c(C(N)=O)s3)c2cc1OC [GSK237700A] | 1.147
22 | COc1cc2ncn(-c3cc(O[C@H](C)c4ccccc4Cl)c(C(N)=O)s3)c2cc1OC [GSK237701A] | 0.7907
23 | CN(C)C(=O)O[C@@H]1CN[C@@H](C#Cc2cc3ncnc(Nc4ccc(OCc5cccc(F)c5)c(Cl)c4)c3s2)C1 [GSK238063A] | 1.133
24 | O=C(O[C@H]1CN[C@H](C#Cc2cc3ncnc(Nc4ccc(Cc5ccccc5)cc4)c3s2)C1)N1CCOCC1 [GSK238583A] | 1.249
25 | Cc1cccc(-c2nc(C)cc(Nc3ccncc3)n2)n1 [GSK257997A] | 0.832
26 | CCn1c(-c2nonc2N)nc2cnc(Oc3cccc(NC(=O)c4ccc(OCCN5CCOCC5)cc4)c3)cc21 [GSK269962B] | 1.303
27 | CC1=C(C(=O)Nc2ccc3[nH]ncc3c2)C(c2ccc3ccccc3c2)CC(=O)N1 (stereo not shown) [GSK270822A] | 1.167
28 | O=C(Nc1cccc(-c2nn3ccccc3c2-c2ccnc(Nc3cccc(C(F)(F)F)c3)n2)c1)c1c(F)cccc1F [GSK292658A] | 1.154
